Source: patent US20230183388A1, “EXOPOLY[…] LACTIC ACID BACTERIUM AND USE THEREOF” (Asahi Kohsan Corporation, priority 2017, published 2023)

Target: T1, hyaluronidase (Bos taurus, UniProt Q2YDK3)
T1 sequence (Q2YDK3 36-553): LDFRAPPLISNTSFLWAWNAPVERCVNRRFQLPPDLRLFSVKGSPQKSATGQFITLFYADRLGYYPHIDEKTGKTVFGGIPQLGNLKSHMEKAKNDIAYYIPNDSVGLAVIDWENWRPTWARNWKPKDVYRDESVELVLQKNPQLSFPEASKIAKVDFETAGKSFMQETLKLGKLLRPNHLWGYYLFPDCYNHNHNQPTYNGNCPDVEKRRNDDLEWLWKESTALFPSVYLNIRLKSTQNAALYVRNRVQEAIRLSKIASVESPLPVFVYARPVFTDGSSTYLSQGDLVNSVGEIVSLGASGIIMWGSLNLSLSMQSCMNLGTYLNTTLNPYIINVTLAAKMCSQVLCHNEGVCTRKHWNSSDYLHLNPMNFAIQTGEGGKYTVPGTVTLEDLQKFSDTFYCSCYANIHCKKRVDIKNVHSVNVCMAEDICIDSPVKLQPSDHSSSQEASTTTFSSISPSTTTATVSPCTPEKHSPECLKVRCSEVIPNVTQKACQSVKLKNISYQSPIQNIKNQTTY
Test: Hyaluronidase activity inhibition of exopolysaccharides
Assay type: biochemical
Conditions: hyaluronidase enzyme solution (MP Biomedicals), activated with Compound 48/80 and CaCl2, sodium hyaluronate substrate, pH 4.0, 37° C.
Procedure: 5 μL of a hyaluronidase enzyme solution (MP Biomedicals, 4 mg/mL, 100 mM sodium acetate buffer (pH 4.0)) was added to 10 μL of an aqueous solution containing polysaccharides at an optional concentration, which was prepared from the polysaccharide sample containing the neutral polysaccharide fractions and the acidic polysaccharide fractions, the neutral polysaccharide fractions, and the acidic polysaccharide fractions, which were exopolysaccharides produced by the strain IJH-SONE68 and obtained in Example 4. The resultant mixture was incubated at 37° C. for 20 minutes. Thereafter, to the mixture, 10 μL of an enzyme-activating solution (0.5 mg/ml Compound 48/80 (manufactured by MP Biomedicals)), 3.75 mg CaCl2·2H2O, and 100 mM sodium acetate buffer (pH 4.0)) were added, and incubated again at 37° C. for 20 minutes. Subsequently, to the resultant mixture, 25 μL of a sodium hyaluronate solution (Wako Pure Chemical Industries, 0.8 mg/mL, 100 mM sodium acetate buffer (pH 4.0)) was added, and further reacted at 37° C. for 40 minutes. After the reaction, the reaction was terminated by adding 10 μL of 0.4 M NaOH aqueous solution. […] 40 μL of the reaction solution was mixed with 200 μL of p-DMAB solution (described below), the mixture was reacted at 37° C. for 20 minutes, and the absorbance at 585 nm was then measured. […]

CC1(C)[C@@H](O[C@H]2O[C@H](C(=O)[O-])[C@@H](O)[C@H](O)[C@H]2O[C@@H]2O[C@H](C(=O)[O-])[C@@H](O)[C@H](O)[C@H]2O)CC[C@]2(C)[C@H]3C(=O)C=C4[C@@H]5C[C@@](C)(C(=O)O)CC[C@]5(C)CC[C@@]4(C)[C@]3(C)CC[C@@H]12.[K+].[K+] [Dipotassium glycyrrhizinate]
IC50 (hyaluronidase activity inhibition): 530 µg/mL
